From patent US11504425B2, “Amphiphilic oligodeoxynucleotide conjugates as adjuvant enhancers” (WAYNE STATE UNIVERSITY, priority 2019, dated 2022)

Tests used:
mouse TLR7 (mTLR7) = target: T1, mouse TLR7 (mTLR7) (Mus musculus, UniProt P58681); assay: HEK mTLR7 reporter cells NF-κB/SEAP; assay type: cell-based; details: ligands at indicated concentrations + 1 μM ODN, 24 h
T1 construct: host or cells: HEK-Blue-mTLR7 (HEK293)
T1 sequence (P58681 27-1050): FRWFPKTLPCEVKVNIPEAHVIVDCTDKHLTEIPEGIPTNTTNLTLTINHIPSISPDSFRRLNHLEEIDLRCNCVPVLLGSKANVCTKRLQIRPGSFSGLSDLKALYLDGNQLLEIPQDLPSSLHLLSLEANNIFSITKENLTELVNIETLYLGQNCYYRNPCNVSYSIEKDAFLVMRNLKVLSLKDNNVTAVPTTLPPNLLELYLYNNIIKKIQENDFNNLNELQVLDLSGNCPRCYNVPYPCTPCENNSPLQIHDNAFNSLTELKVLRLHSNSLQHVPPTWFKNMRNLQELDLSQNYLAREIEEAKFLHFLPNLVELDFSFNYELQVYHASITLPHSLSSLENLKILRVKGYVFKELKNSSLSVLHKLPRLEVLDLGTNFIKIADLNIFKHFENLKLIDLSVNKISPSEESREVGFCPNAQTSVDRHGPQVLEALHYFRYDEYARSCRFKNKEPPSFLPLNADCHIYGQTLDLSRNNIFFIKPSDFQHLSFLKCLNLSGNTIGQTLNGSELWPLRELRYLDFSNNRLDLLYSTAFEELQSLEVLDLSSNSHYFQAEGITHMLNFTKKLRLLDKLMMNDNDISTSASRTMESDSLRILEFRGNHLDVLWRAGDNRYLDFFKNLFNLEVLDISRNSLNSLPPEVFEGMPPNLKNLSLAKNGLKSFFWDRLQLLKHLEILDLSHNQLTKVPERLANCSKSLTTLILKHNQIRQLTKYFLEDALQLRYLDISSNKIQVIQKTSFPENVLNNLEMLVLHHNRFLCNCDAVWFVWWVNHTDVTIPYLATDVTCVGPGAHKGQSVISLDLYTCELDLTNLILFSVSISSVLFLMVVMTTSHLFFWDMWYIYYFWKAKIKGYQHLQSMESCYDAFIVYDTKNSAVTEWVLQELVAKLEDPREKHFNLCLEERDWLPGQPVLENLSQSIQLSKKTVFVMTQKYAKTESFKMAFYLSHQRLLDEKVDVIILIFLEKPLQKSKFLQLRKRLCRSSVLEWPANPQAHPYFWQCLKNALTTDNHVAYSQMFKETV
Experimental: (§1) HEK-Blue™-mTLR7, mTLR8, hTLR7, hTLR8, and RAW-Blue™ cells were purchased from InvivoGen and were used to evaluate bioactivities of lipo ODNs and TLR 7/8 ligands in vitro. All these cell lines were cultured with DMEM supplemented with 10% FBS, 1% P/S and 100 μg/mL Normocin at 37° C. with 5% CO2. […] After incubating for 24 h, SEAP levels were quantified by developing supernatants with QuantiBlue™ substrate for 1 h and reading absorption at 620 nm, following manufacturer's instructions.
Raw Blue cells which respond to both murine TLR-7 and TLR-8 are also included to assess the overall modulatory effect. half-maximal effective concentration (EC50) and potency of several classic TLR7/8 ligands were evaluated in murine TLR7 and TLR8 reporter cells.

[1] = system: TLR7-mediated NF-κB activation in Raw-Blue reporter cells; assay: Raw-Blue NF-κB/SEAP reporter stimulation with TLR7 ligands; assay type: cell-based, murine
Experimental: as §1
Following subcutaneous injection, lipid-modified oligonucleotides efficiently accumulated in the draining lymph nodes by binding and trafficking with endogenous albumin protein (Liu et al., Nature 507, 519-522, 2014; Yu et al., Pharmaceutical Res. 35: 56, 2018). Inspired by that prior work, the current study was aimed to take advantage of lipid functionalization in other oligonucleotide-based TLR inhibitors to further expand the pool of lipo suppressive ODNs. The therapeutic efficacy of lipid-modified IRS 954 in suppressing TLR7-mediated immune activation and alleviating the severity of SLE was investigated. Imiquimod (IMQ; FIG. 1A) was first used to stimulate TLR7-mediated immune activation in Raw-Blue reporter cells. For the initial experiments, Raw Blue cells-a murine RAW 264.7 macrophage cell line which expresses secreted embryonic alkaline phosphatase (SEAP) under the control of an NF-κB and AP-1, were used. Raw Blue cells express many toll-like receptors, including TLR-7, TLR-8, and TLR-9. The immunosuppressive capability of unmodified or lipo IRS 954 was determined by quantifying the level of TLR7-induced NF-κB activation.

Murine splenocytes = assay: Cytokine secretion by murine splenocytes (ELISA); assay type: cell-based, mice; details: 2 μM IMQ + 1 μM ODN, 24 h
Experimental: Spleens were freshly collected from mice and were cut into small pieces. A plunger end of a syringe was used to further disassemble spleen tissues into single cells. The cell suspension was subsequently filtered and washed. Lysing buffer was utilized to remove excessive red blood cells. After two washes, 95% viability of splenocytes was confirmed by trypan blue. Splenocytes were resuspended in RPMI-1640 supplemented with 10% FBS and 1% P/S. Splenocytes were seeded at 1×10^6 cells/ml in 200 μL in a 96-well plate.
Supernatants collected from splenocytes suspension or human PBMC suspension after incubation were separately analyzed for IL-6, IL-12p40, TNF-α, and IFN-α by ELISA following manufacturer's instructions.

5′-TTTTTTTTTTTTTTTTTTTT-3′ [T20]
mTLR7 activation by IMQ, CL075, R848 in the presence of the ODN (mouse TLR7 (mTLR7)): suppressed the TLR-7 activation | lowering of IMQ-induced NF-κB activation ([1]; 2 μM IMQ + 1 μM ODN, 24 h): 2 folds | IMQ-elicited activation with high-dose ODN ([1]; 2 μM IMQ + 5 μM T20, 24 h): significantly enhanced inhibition in IMQ-elicited activation | overall NF-κB stimulation by IMQ, CL075, R848 in the presence of the ODN ([1]; ligands at indicated concentrations + 1 μM ODN, 24 h): suppressive effect on all the TLR ligands tested | IFN-α production induced by IMQ (Murine splenocytes): decreased the production of IFN-α | IL-6 production (Murine splenocytes): significantly lower level of pro-inflammatory cytokines compared with IMQ alone | IL-12p40 production (Murine splenocytes): significantly lower level of pro-inflammatory cytokines compared with IMQ alone | TNF-α production (Murine splenocytes): significantly lower level of pro-inflammatory cytokines compared with IMQ alone
